“Also recorded” adds a separate entry of the source. Where no end group is shown, it is not given here. The star is where a group is joined. For = O=C*
Test system: OVA-induced asthmatic mice
Test: OVA-induced bronchial asthma mouse model, Standard/Resolution protocols, drug before each i.n. challenge
Format: in vivo, mouse (female BALB/c)
From the text: The OVA-Induced Bronchial Asthma Mouse Model for Inhibition of Mast Cell Degranulation
Reagents: Crystalline OVA was obtained from Pierce Chem. Co. (Rockford, Ill.) aluminum potassium sulfate (alum) from Sigma Chem. Co. (St. Louis, Mo.), pyrogen-free distilled water from Baxter, Healthcare Corporation (Deerfield, Ill.), 0.9% sodium chloride (normal saline) from Lymphomed (Deerfield, Ill.) and Trappsol™ HPB-L100 (aqueous hydroxypropyl beta cyclodextrin; 45 wt/vol % aqueous solution) from Cyclodextrin Technologies Development, Inc. (Gainesville, Fla.). The OVA (500 μg/ml in normal saline) was mixed with equal volumes of 10% (wt/vol) alum in distilled water. The mixture (pH 6.5 using 10 N NaOH) after incubation for 60 minutes at room temperature underwent centrifugation at 750 g for 5 minutes; the pellet was resuspended to the original volume in distilled water and used within one hour.
The selective 5-lipoxtgenase inhibitor, Zileuton (N-[1-benzo[b]thien-2-ylethyl]-N-hydroxyurea; J. Pharmacol Exp Ther. 1991; 256: 929-937), was kindly provided by Drs. Bell and George W. Carter (Abbott Laboratories, Abbott Part, Ill.). Zileuton was dissolved in Trappsol.™. Histatek, Inc. (Seattle, Wash.) provided the mast cell degranulation inhibitor, f-Met-Leu-Phe-Phe (“HK-X”).
Female BALB/c […] (6-8 wk of age at purchase; D and K, Seattle Wash.) were housed under conventional conditions for the studies.
Allergen Immunization/Challenge Protocols: Mice received an i.p. injection of 0.2 ml (100 μg) of OVA with alum on the different protocols of Standard (FIG. 5A) and Resolution (FIG. 5B) (J. Exp Med. 1996; 184: 1483-1494). According to the different protocols, mice were anesthetized with 0.2 ml i.p. of ketamine (0.44 mg/ml)/xylazine (6.3 mg/ml) in normal saline before receiving an intranasal (i.n.) does of 100 μg OVA in 0.05 ml normal saline and an i.n. dose of 50 μg OVA in 0.05 ml normal saline separately on different days. Two control groups were used. Accordingly, the first group received normal saline with alum i.p. and normal saline without alum i.n.; the second group received OVA with alum i.p., OVA without alum i.n., and normal saline, alone.
The trachea and left lung (the right lung is used for bronchoalveolar lavage (“BAL”)) were obtained and fixed in 10% neutral formaldehyde solution at room temperature for 6˜15h. After being embedded in paraffin, the tissues were cut into 5-um sections and processed with the different staining or immunolabling further. Discombe's eosinophil staining was used for counting the cell numbers with the counterstain of methylene blue. The eosinophil number per unit airway area (2,200 μm^2) was determined by morphometry (J. Pathol. 1992; 166: 395-404; Am Rev Respir Dis. 1993; 147:448-456). Fibrosis was identified with the Masson's trichrome staining. Airway mucus was identified by the following staining method: methylene blue, hematoxylin and eosin, mucicarmine, alcian blue, and alcian blue/periodic acid-Schiff (PAS) reaction (Troyer, H., “Carbohydrates” in Principles and Techniques of Histochemistry, Little, Brown and Company, Boston, Mass., 1980: 89-121; Sheehan, D. C., et al., “Carbohydrates” in Theory and Practice of Histotechnology, Battle Press, Columbus, Ohio, 1980: 159-179). Mucin was stained with mucicarmine solution; metanil yellow counterstain was employed.
Acidic mucin and sulfated mucosubstances were stained with alcian blue, pH 2.5; nuclear fast red counterstain was used. Neutral and acidic mucosubstances were identified by alcian blue. pH 2.5, and PAS reaction. The degree of mucus plugging of the airways (0.5-0.8 mm in diameter) was also assessed by morphometry. The percent occlusion of airway diameter by mucus was classified on a semiquantitative scale from 0 to 4+ as described in Figure Legends. The histologic and morphometric analyses were performed by individuals blinded to the protocol design. […]

f-Met-Leu-Phe-Phe (For-MLFF) [Example 9]
Reduction of airway eosinophils over time course (1-, 2- and 3-month groups, versus OVA): reduced eosinophils comparably at one month, but much more beneficially at two and three months | % of plug of airway (28 days): 19% | Mucus plug score in airways (28 days, semiquantitative scale 0 to 4+): 1.4 | Mucus accumulation / mucus release in the airway (histology, morphometry) (HK-X given before i.n. OVA, FIG. 6, listed as HK-X): inhibits mucus accumulation; also recorded: markedly reduced | Infiltration of the interstitial tissue by eosinophils (histology) (compared to OVA-challenge alone, FIG. 6C): also reduced | Formation of mucus plugs / mucus production in small airways (doses of 5 μg/kg and 10 μg/kg, FIG. 7): Both doses significantly reduce the mucus production in small airways

Reference: patent US20030130200A1, “Small peptides and methods for treatment of asthma and inflammation” (Hisatek, LLC, priority 1997, published 2003)
